Where a name gives a salt, the structure may show the parent alone. Read-outs that look alike come from different tables or passages of the source.
Test system: P3 promoter (RNAIII / delta-toxin expression)
Assay: USA300-P3-Luc reporter screen for inhibition of RNAIII induction (P3 promoter activation by AIP)
Assay type: cell-based, Staphylococcus aureus
Conditions: for inhibition at 40 µM: Staphylococcus aureus; for % Inhibition: relative to positive control (USA400 inhibitory AIP supernatant)
Procedure: Staphylococcus aureus pulse-field gel electrophoresis (PFGE) type USA300 transformed with a plasmid containing the P3 promoter followed by the luciferase gene (USA300-P3-Luc) was grown in tryptic soy broth (TSB) to […] (5×10^8 CFU/mL), as determined by optical density at 600 nm, from overnight cultured bacteria and harvested via centrifugation (4,000×g, 4° C., 5 minutes). Supernatant was removed and the bacterial pellet was washed twice with an equal volume of PBS. Bacteria were suspended in PBS at 5×10^8 CFU/mL, as confirmed by plating serial dilutions onto TSB. 2×10^6 CFU washed USA300-P3-Luc was incubated with wt USA300 8-hour filtered supernatant containing stimulatory auto-inducing peptide (AIP) at a final dilution of 1:10 and 40 μM each compound in a total of 40 μL/well of TSB on a 384-well plate. The S. aureus two-component agr system induces delta-toxin expression via expression of AIP at stationary growth phase and was used to stimulate activation of the P3 promoter. Alternatively, AIP produced by a different S. aureus strain, PFGE type USA400, acts to inhibit delta-toxin expression in USA300. As a positive control, samples were incubated with USA400 8-hour filtered supernatant containing inhibitory AIP at a final dilution of 1:10 instead of test compound. Samples were incubated at 37° C. for 2 hours, then analyzed for luminescence and optical density at 600 nm. Percent Inhibition was determined by the following formula: Percent inhibition=100×(LumNo Inhibitor−Lumcompound)/(LumNo Inhibitor.−LumPositive control). Inhibitory compounds suitable for use in methods of inhibiting skin inflammation according to the disclosure were identified (Table 2) based on at least a 40% inhibition relative to the positive control, minimal reduction in growth as determined by optical density at 600 nm, and relatively low promiscuity (<10%) in relation to other high-throughput assays performed using these compounds.

[1] = 40 μM compound, 2 hours at 37° C., luminescence, relative to positive control (USA300 inhibitory AIP supernatant), read-out: % Inhibition
[2] = 40 μM compound, 2 hours at 37° C., luminescence

SMILES	inhibition at 40 µM [1] [%]	also measured
CC(C)c1ccc2c(c1)c(SC(C)(C)C)c(CC(C)(C)C(=O)O)n2Cc1ccc(Cl)cc1 [1H-Indole-2-propanoic acid, 1-[(4-chlorophenyl)methyl]-3-[(1,1-dimethylethyl)thio]-Alpha,Alpha-dimethyl-5-(1-methylethyl)-]	86.3	–
O=C(/C=C/c1ccc(O)cc1)c1ccccc1O [2′,4-DIHYDROXYCHALCONE]	71.9	–
NCCCNCCCCNC(=O)C(NC(=O)CCCCCN=C(N)N)c1ccc(Br)cc1 (centres unmarked) [4Br-AHX]	–	% Inhibition [2]: 55.8%
O=C(O)c1cc2cc(Cl)ccc2[nH]1 [5-CHLOROINDOLE-2-CARBOXYLIC ACID]	47.8	–
COc1ccc(CNC(=O)Nc2ncc([N+](=O)[O-])s2)cc1 [361549, GSK-3b Inhibitor VIII, GSK-3b Inhibitor VIII]	–	% Inhibition [2]: 73.7%
NCCOB(c1ccccc1)c1ccccc1 [AMINOETHOXYDIPHENYLBORANE]	82.1	–
O=C(O)Cc1ccccc1Nc1c(Cl)cccc1Cl [Benzeneacetic acid, 2-[(2,6-dichlorophenyl)amino]-, monosodium salt]	65.1	–
CC(C)c1cc2c(c(O)c1O)[C@@]1(C(=O)O)CCCC(C)(C)[C@@H]1CC2 [CARNOSIC ACID]	95.8	–
O=C1C(Cl)=C(Cl)C(=O)C(Cl)=C1Cl [CHLORANIL]	47.7	–
Cc1cc(O)c2c(c1)C(=O)c1cccc(O)c1C2=O [CHRYSOPHANOL]	47.2	–
COC(=O)[C@H](c1ccccc1Cl)N1CCc2sccc2C1 [CLOPIDOGREL SULFATE]	69.4	–
CCCc1c(OCCCCc2nnn[nH]2)ccc(C(C)=O)c1O [CPD000058555_LY 171883, LY 171883]	48.7	–
O=C(c1ccc(F)cc1)C1CCN(CCn2c(=S)[nH]c3ccccc3c2=O)CC1 [CPD000466283_Altanserin, Altanserin]	59	–
CCOc1cc(CC(=O)N[C@@H](CC(C)C)c2ccccc2N2CCCCC2)ccc1C(=O)O [CPD000466305_REPAGLINIDE, REPAGLINIDE]	49	–
COc1cc(C)c(Cc2cnc(N)nc2N)cc1OC [CPD000466374_ORMETOPRIM, ORMETOPRIM]	53.2	–
CC(C)c1nc(CN(C)C(=O)N[C@H](C(=O)N[C@@H](Cc2ccccc2)C[C@H](O)[C@H](Cc2ccccc2)NC(=O)OCc2cncs2)C(C)C)cs1 [CPD000466395_RITONAVIR, RITONAVIR]	85.7	–
Cc1ccsc1C(=CCCN1CCC[C@@H](C(=O)O)C1)c1sccc1C [CPD000469176_TIAGABINE HCl, TIAGABINE HCl]	69.7	–
C#C[C@]1(O)CC[C@H]2[C@@H]3CCC4=Cc5oncc5C[C@]4(C)[C@H]3CC[C@@]21C [DANAZOL]	47.4	–
O=C1c2cccc(O)c2C(=O)c2c(O)cccc21 [DANTRON]	76.1	–
CC(=O)Oc1cccc2c1C(=O)c1c(OC(C)=O)cc(C(=O)O)cc1C2=O [DIACERIN]	–	% Inhibition [2]: 76%
c1ccc2c(c1)sc1ccccc12 [DIBENZOTHIOPHENE]	50.7	–
C/C=C(/C(=C/C)c1ccc(O)cc1)c1ccc(O)cc1 [DIENESTROL]	90.8	–
CN1C[C@H](C(=O)N[C@]2(C)O[C@@]3(O)[C@@H]4CCCN4C(=O)[C@H](Cc4ccccc4)N3C2=O)C[C@@H]2c3cccc4[nH]cc(c34)C[C@H]21 [DIHYDROERGOTAMINE MESYLATE]	52.2	–
C=C1CC[C@H](O)C/C1=C/C=C1\CCC[C@]2(C)[C@@H]([C@H](C)/C=C/[C@H](C)C(C)C)CC[C@@H]12 [ERGOCALCIFEROL]	51.9	–
Cc1c(Nc2ncccc2C(=O)O)cccc1C(F)(F)F [FLUNIXIN MEGLUMINE | BANAMINE, FLUNIXIN MEGLUMINE]	69.2	–
C=C1C[C@]23C[C@@]1(O)CC[C@H]2[C@@]12C=C[C@H](O)[C@@](C)(C(=O)O1)[C@H]2[C@@H]3C(=O)O [G[…]]	–	inhibition at 40 µM (USA300, 2 h): 60.5%
O=c1c(O)c(-c2ccccc2)oc2cc(O)cc(O)c12 [Galangine]	–	% Inhibition [2]: 79.5%

SMILES	inhibition at 40 µM [1] [%]	also measured
Oc1cc2c(cc1O)C1c3ccc(O)c(O)c3OCC1(O)C2 (centres unmarked) [HAEMATOXYLIN]	62.9	–
CC[C@H](c1ccc(O)cc1)[C@@H](CC)c1ccc(O)cc1 [HEXESTROL]	99.9	–
O=C(NC(=O)c1c(F)cccc1F)Nc1cc(Cl)c(OC(F)(F)C(F)C(F)(F)F)cc1Cl (centres unmarked) [LUFENURON | PROGRAM, LUFENURON]	55.8	–
Cc1ccc(Nc2c(F)cccc2Cl)c(CC(=O)O)c1 [LUMIRACOXIB | PREXIGE, LUMIRACOXIB]	60	–
O=C(O)c1nn(Cc2ccc(Cl)cc2Cl)c2ccccc12 [Lonidamine]	71.3	–
CC(=O)O[C@]1(C(C)=O)CC[C@H]2[C@@H]3C=C(C)C4=CC(=O)CC[C@]4(C)[C@H]3CC[C@@]21C [MEGESTROL ACETATE]	46.5	–
COC(=O)CC[C@@H](C)[C@H]1CC[C@H]2[C@@H]3CC[C@@H]4C[C@H](O)CC[C@]4(C)[C@H]3C[C@H](O)[C@]12C [METHYL DEOXYCHOLATE]	78.9	–
CO/N=C1\C[C@]2(C[C@@H]3C[C@@H](C/C=C(\C)C[C@@H](C)/C=C/C=C4\CO[C@@H]5[C@H](O)C(C)=C[C@@H](C(=O)O3)[C@]45O)O2)O[C@H](/C(C)=C/C(C)C)[C@H]1C [MOXIDECTIN | CYDECTIN, MOXIDECTIN]	58.9	–
O=C(O)c1ccccc1Nc1cccc2c1C(=O)c1cccc(Nc3ccccc3C(=O)O)c1C2=O [NCI16221]	–	% Inhibition [2]: 49.9%
O=C(N/N=C/c1ccc([N+](=O)[O-])o1)c1cc([N+](=O)[O-])cc([N+](=O)[O-])c1O [NIFURSOL]	63.9	–
C#C[C@]1(O)CC[C@H]2[C@@H]3CCC4=CC(=O)CC[C@@H]4[C@H]3CC[C@@]21C [NORETHINDRONE]	52.4	–
CCCC[C@@H](CC)COC(=O)C(C#N)=C(c1ccccc1)c1ccccc1 [OCTOCRYLENE | EUSOLEX, OCTOCRYLENE]	–	% Inhibition [2]: 97.9%
COc1ccnc(C[S+]([O-])c2nc3ccc(OC(F)F)cc3[nH]2)c1OC (centres unmarked) [PANTOPRAZOLE | PROTONIX, PANTOPRAZOLE]	52.8	–
Nc1ccc(/N=N/c2ccccc2)c(N)n1 [PHENAZOPYRIDINE HYDROCHLORIDE]	75.5	–
O=C1OC(c2ccc(O)cc2)(c2ccc(O)cc2)c2ccccc21 [PHENOLPHTHALEIN]	72.4	–
COc1ccc(-c2c(O)c3c(OC)c4c(cc3oc2=O)OC(C)(C)C=C4)cc1 [ROBUSTIC ACID]	96.9	–
C[C@@H]1CC[C@@]2(OC1)O[C@H]1C[C@H]3[C@@H]4CC[C@@H]5C[C@@H](O)CC[C@]5(C)[C@H]4CC[C@]3(C)[C@H]1[C@@H]2C [SMILAGENIN]	–	% Inhibition [2]: 75.3%
Cc1ccc(Cl)c(Nc2ccccc2C(=O)O)c1Cl [SODIUM MECLOFENAMATE]	90.9	–
Oc1c2ccccc2c2c3c(cccc13)N=N2 [SP 600125]	45.3	–
O=C(O)c1ccccc1Nc1cccc(OCc2ccc3ccccc3n2)c1 [SR 2640]	98.7	–
CSc1ccc(/C=C2/C(C)=C(CC(=O)O)c3cc(F)ccc32)cc1 [Sulindac Sulfide]	72.4	–
CCC(=O)O[C@H]1CC[C@H]2[C@@H]3CCC4=CC(=O)CC[C@]4(C)[C@H]3CC[C@]12C [TESTOSTERONE PROPIONATE]	65.7	–
Cc1ccc(S(=O)(=O)N[C@@H](Cc2ccccc2)C(=O)CCl)cc1 [TPCK]	–	% Inhibition [2]: 87.8%
C[C@H](CCC(=O)O)[C@H]1CC[C@H]2[C@@H]3CC[C@@H]4CCCC[C@]4(C)[C@H]3CC[C@]12C [URSOCHOLANIC ACID]	61.3	–
Oc1nc(-c2ccc(C(F)(F)F)cc2)nc2c1CSCC2 [XAV939]	53.4	–
Cc1cc(CC(=O)O)n(C)c1C(=O)c1ccc(Cl)cc1 [ZOMEPIRAC SODIUM]	64.8	–

Reference: patent US12065485B2, “Treatment of staphylococcal disorders” (priority 2013, dated 2024)
